What was measured:
Plasmodium falciparum [1] = test: Antimalarial activity against Plasmodium falciparum Dd2 by reduced [3H]hypoxanthine uptake; type: functional, organism-based
Plasmodium falciparum [2] = test: Antimalarial activity against Plasmodium falciparum 3D7 by reduced [3H]hypoxanthine uptake; type: functional, organism-based
[3] = molecular target: T1, Enoyl-acyl-carrier protein reductase (Plasmodium falciparum, UniProt Q965D5); test: Inhibition of Plasmodium falciparum ENR
T1 sequence (Q965D5 whole entry): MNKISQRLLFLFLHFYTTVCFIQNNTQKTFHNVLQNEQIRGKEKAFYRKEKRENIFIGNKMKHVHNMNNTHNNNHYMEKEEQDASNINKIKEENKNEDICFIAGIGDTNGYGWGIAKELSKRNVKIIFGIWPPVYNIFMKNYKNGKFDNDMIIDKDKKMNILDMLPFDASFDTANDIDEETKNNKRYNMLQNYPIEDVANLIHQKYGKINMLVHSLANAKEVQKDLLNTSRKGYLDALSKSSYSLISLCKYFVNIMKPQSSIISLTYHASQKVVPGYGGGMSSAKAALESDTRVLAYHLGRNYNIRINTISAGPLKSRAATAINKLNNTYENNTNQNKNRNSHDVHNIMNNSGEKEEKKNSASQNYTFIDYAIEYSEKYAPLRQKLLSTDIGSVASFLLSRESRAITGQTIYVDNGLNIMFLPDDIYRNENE

Plasmodium falciparum [4] = test: Antimalarial activity against Plasmodium falciparum Dd2; type: functional, organism-based
Plasmodium falciparum [5] = test: Antimalarial activity against Plasmodium falciparum 3D7 expressing katG; type: functional, organism-based
Plasmodium falciparum [6] = test: Antimalarial activity against Plasmodium falciparum 3D7; type: functional, organism-based
Plasmodium falciparum [7] = test: Antimalarial activity against Plasmodium falciparum Dd2 expressing katG; type: functional, organism-based

Structure (SMILES)	EC50 (Plasmodium falciparum [1])	EC50 (Plasmodium falciparum [2])	IC50 [3]	IC50 (Plasmodium falciparum [4])	IC50 (Plasmodium falciparum [5])	IC50 (Plasmodium falciparum [6])	IC50 (Plasmodium falciparum [7])
O=C(O)c1ccc(Oc2ccc(Cl)cc2Cl)c(O)c1	> 100 µM	> 100 µM	> 100 µM	–	–	–	–
N#Cc1ccc(Oc2ccc(-c3ccncc3)cc2O)c(Cl)c1	11 µM	11 µM	2.8 µM	–	–	–	–
Cc1ccc(Oc2ccc(Cl)cc2Cl)c(O)c1	14 µM	10 µM	0.2 µM	–	–	–	–
N#Cc1ccc(Oc2ccc(-c3ccccn3)cc2O)c(Cl)c1	12 µM	8.1 µM	0.7 µM	–	–	–	–
Oc1cc(-c2cccnc2)ccc1Oc1ccc(Cl)cc1Cl	39 µM	23 µM	33 µM	–	–	–	–
Oc1cc(-c2ccccc2)ccc1Oc1ccc(Cl)cc1Cl	3.9 µM	2.3 µM	0.14 µM	–	–	–	–
CCC(C)Cc1ccc(Oc2ccc(Cl)cc2Cl)c(O)c1 (configuration not stated)	2.9 µM	2 µM	0.29 µM	–	–	–	–
Oc1cc(-c2nn[nH]n2)ccc1Oc1ccc(Cl)cc1Cl	> 100 µM	> 100 µM	> 100 µM	–	–	–	–
Oc1cc(CCCc2ccccc2)ccc1Oc1ccc(Cl)cc1Cl	7.2 µM	6.4 µM	0.44 µM	–	–	–	–
Oc1cc(CCc2ccccc2)ccc1Oc1ccc(Cl)cc1Cl	11 µM	5.6 µM	0.076 µM	–	–	–	–
N#Cc1ccc(Oc2ccc(Cl)cc2Cl)c(O)c1	22 µM	19 µM	0.049 µM	–	–	–	–
NC(=O)c1ccc(Oc2ccc(Cl)cc2Cl)c(O)c1	45 µM	40 µM	21 µM	–	–	–	–
Oc1cc(Cc2ccccn2)ccc1Oc1ccc(Cl)cc1Cl	13 µM	7.5 µM	0.64 µM	–	–	–	–
Oc1cc(Cc2cccnc2)ccc1Oc1ccc(Cl)cc1Cl	11 µM	6.9 µM	0.84 µM	–	–	–	–
CCc1ccc(Oc2ccc(Cl)cc2Cl)c(O)c1	6 µM	4.6 µM	0.11 µM	–	–	–	–
Cc1cccc(-c2ccc(Oc3ccc(Cl)cc3Cl)c(O)c2)c1	6.1 µM	3.5 µM	0.23 µM	–	–	–	–
Oc1cc(-c2ccc(F)cc2)ccc1Oc1ccc(Cl)cc1Cl	3.1 µM	2.1 µM	0.038 µM	–	–	–	–
CC(C)CCc1ccc(Oc2ccc(Cl)cc2Cl)c(O)c1	8 µM	7.4 µM	0.12 µM	–	–	–	–
CC(C)Cc1ccc(Oc2ccc(Cl)cc2Cl)c(O)c1	2.8 µM	2 µM	0.18 µM	–	–	–	–
Cc1ccccc1-c1ccc(Oc2ccc(Cl)cc2Cl)c(O)c1	2.5 µM	1.6 µM	0.44 µM	–	–	–	–
Cc1ccccc1-c1ccc(Oc2ccc(C#N)cc2Cl)c(O)c1	3.3 µM	2.6 µM	0.41 µM	–	–	–	–
CCCc1ccc(Oc2ccc(Cl)cc2Cl)c(O)c1	3 µM	2.5 µM	0.21 µM	–	–	–	–
CCCCc1ccc(Oc2ccc(Cl)cc2Cl)c(O)c1	3.2 µM	3.5 µM	0.48 µM	–	–	–	–
Oc1cc(Cc2ccccc2)ccc1Oc1ccc(Cl)cc1Cl	12 µM	11 µM	0.071 µM	–	–	–	–
Cc1ccc(-c2ccc(Oc3ccc(Cl)cc3Cl)c(O)c2)cc1	4.3 µM	2.9 µM	0.19 µM	–	–	–	–
Oc1cc(CC2CCCCC2)ccc1Oc1ccc(Cl)cc1Cl	4.8 µM	3.4 µM	0.53 µM	–	–	–	–
N#Cc1ccc(Oc2ccc(Cc3ccncc3)cc2O)c(Cl)c1	13 µM	7.4 µM	0.53 µM	–	–	–	–
NNC(=O)c1ccncc1 [ISONIAZID]	–	–	–	1800 µM	1200 µM	1200 µM	1800 µM
Oc1cc(Cl)ccc1Oc1ccc(Cl)cc1Cl [TRICLOSAN]	3.8 µM	2.8 µM	–	–	–	–	–

From ChEMBL document CHEMBL1145507, “X-ray structural analysis of Plasmodium falciparum enoyl acyl carrier protein reductase as a pathway toward the optimization of triclosan antimalarial efficacy” (J Biol Chem, 2007)
